Measured values as given in patent US20220153732A1, “PROTEIN SECRETION INHIBITORS” (KEZAR LIFE SCIENCES, priority 2019, published 2022).

What was measured:
Type in all cases: cell-based
[1] = test system: TNFα-FL/Gaussia Luciferase; experiment: Dox Induced TNFα-FL-Gluc Assay; details: 24 hr doxycycline induction, 293FRT/TO cells, Gaussia luciferase signal; read-out: 24 hr Dox Inducible TNFaFLGluc 293FRT/TO: Mean IC50
Experimental: (§1) Transfected cells were selected for resistance to the selectable markers Hygromycin and Blasticidin to create a stable cell line that contained the TNFα-FL/Gaussia Luciferase cDNA insert whose expression was regulated under the T-RExTM system. The day before assay, cells were trypsinized and plated in 384-well tissue culture plates. The next day, compound dilutions in DMSO/media containing doxycycline were added to the wells and incubated at 37° C., 5% CO2. […] For chemical structures that include one or more stereoisomers, but are illustrated without indicating stereochemistry, the assay data refers to a mixture of stereoisomers.

[2] = test system: human multiple myeloma cell line U266B1; experiment: U266 Cell Viability Assay; details: U-266, 48 hr, U266B1 cells, Celltiter-Glo, read-out: 48 hr U266 Viability Celltiter-Glo: Mean EC50
Experimental: Cells were plated in 384-well tissue culture plates and treated with compound dilutions in DMSO/media. Plates were incubated at 37° C., 5% CO2 for 48 hours. After 48 hours, Celltiter-Glo® (Promega) was added to each well and luciferase signal was quantified using Tecan Infinite M1000 Pro for cell viability determination.
(§2) For chemical structures that include one or more stereoisomers, but are illustrated without indicating stereochemistry, the assay data refers to a mixture of stereoisomers.

[3] = test system: IL-2-FL/Gaussia Luciferase; experiment: Dox Induced IL2-FL-Gluc Assay; details: 24 hr doxycycline induction, 293FRT/TO cells, Gaussia luciferase signal; read-out: 24 hr Dox Inducible IL2FLGIuc 293FRT/TO: Mean IC50
Experimental: as §1, with “IL-2-FL/Gaussia” for “TNFα-FL/Gaussia”

[4] = test system: human multiple myeloma cell line NCI-H929; experiment: H929 Cell Viability Assay; details: 48 hr, NCI-H929 cells, Celltiter-Glo, read-out: 48 hr H929 Viability Celltiter-Glo: Mean EC50
Experimental: Plates were incubated at 37° C., 5% CO2 for 48 hours. After 48 hours, Celltiter-Glo® (Promega) was added to each well and luciferase signal was quantified using Tecan Infinite M1000 Pro for cell viability determination.
as §2

[5] = test system: HER3-ss+4aa/Gaussia Luciferase; experiment: Dox-Induced Her3-ss-Gluc Assay; details: 24 hr doxycycline induction, 293FRT/TO cells, Gaussia luciferase signal; read-out: 24 hr Dox Inducible Her3(ss + 4)Gluc 293FRT/TO: Mean IC50
Experimental: (§3) Transfected cells were selected for resistance to the selectable markers Hygromycin and Blasticidin to create a stable cell line that contained the HER3-ss+4aa/Gaussia Luciferase cDNA insert whose expression was regulated under the T-REx™ system. The day before assay, cells were trypsinized and plated in 384-well tissue culture plates. The next day, compound dilutions in DMSO/media containing doxycycline were added to the wells and incubated at 37° C., 5% CO2.
as §2

[6] = test system: PD1-ss+10aa/Gaussia Luciferase; experiment: Dox-Induced PD1-ss-Gluc Assay; details: 24 hr doxycycline induction, 293FRT/TO cells, Gaussia luciferase signal; read-out: 24 hr Dox Inducible PD1ssGluc 293FRT/TO: Mean IC50
Experimental: as §3, with “PD1-ss+10aa/Gaussia” for “HER3-ss+4aa/Gaussia”
as §2

CCc1csc(NC(=O)c2cccn2Cc2ccncc2)n1 [Compound A35, N-(4-ethylthiazol-2-yl)-1-(pyridin-4-ylmethyl)-1H-pyrrole-2-carboxamide]
IC50 [1]: > 25000 nM | EC50 [2]: > 25000 nM | IC50 [3]: 2300 nM | EC50 [4]: > 25000 nM | IC50 [5]: 1940 nM | IC50 [6]: 692 nM

CC(C)OC(C)(C)c1csc(NC(=O)c2cccn2Cc2cc(F)nc(F)c2)n1 [Compound A36, 1-((2,6-difluoropyridin-4-yl)methyl)-N-(4-(2-isopropoxypropan-2-yl)thiazol-2-yl)-1H-pyrrole-2-carboxamide]
IC50 [1]: 21000 nM | EC50 [2]: > 25000 nM | IC50 [3]: 896 nM | EC50 [4]: > 25000 nM | IC50 [5]: 1140 nM | IC50 [6]: 698 nM

Cc1sc(NC(=O)c2cccn2Cc2ccncc2)nc1C(C)(C)OC(C)C [Compound A37, N-(4-(2-isopropoxypropan-2-yl)-5-methylthiazol-2-yl)-1-(pyridin-4-ylmethyl)-1H-pyrrole-2-carboxamide]
IC50 [1]: 12100 nM | EC50 [2]: > 25000 nM | IC50 [3]: 1070 nM | EC50 [4]: > 25000 nM | IC50 [5]: 1240 nM | IC50 [6]: 703 nM

Cc1sc(NC(=O)c2cccn2Cc2ccncc2)nc1C(C)C [Compound A38]
IC50 [1]: 14800 nM | EC50 [2]: > 25000 nM | IC50 [3]: 1410 nM | EC50 [4]: > 25000 nM | IC50 [5]: 1200 nM | IC50 [6]: 706 nM

CC(C)(OCC1CCCCO1)c1csc(NC(=O)c2cccn2Cc2ccncc2)n1 (stereo not drawn) [Compound A39, 1-(pyridin-4-ylmethyl)-N-(4-(2-((tetrahydro-2H-pyran-2-yl)methoxy)propan-2-yl)thiazol-2-yl)-1H-pyrrole-2-carboxamide]
IC50 [1]: 13100 nM | EC50 [2]: > 25000 nM | IC50 [3]: 1340 nM | EC50 [4]: > 25000 nM | IC50 [5]: 1490 nM | IC50 [6]: 723 nM

CC(C)(OCC1CCOCC1)c1csc(NC(=O)c2cccn2Cc2ccncc2)n1 [Compound A40, 1-(pyridin-4-ylmethyl)-N-(4-(2-((tetrahydro-2H-pyran-4-yl)methoxy)propan-2-yl)thiazol-2-yl)-1H-pyrrole-2-carboxamide]
IC50 [1]: 12600 nM | EC50 [2]: > 25000 nM | IC50 [3]: 1210 nM | EC50 [4]: > 25000 nM | IC50 [5]: 1560 nM | IC50 [6]: 858 nM

CC(C)OC(C)(C)c1csc(NC(=O)c2cccn2Cc2ccncc2Br)n1 [Compound A41, 1-((3-bromopyridin-4-yl)methyl)-N-(4-(2-isopropoxypropan-2-yl)thiazol-2-yl)-1H-pyrrole-2-carboxamide]
IC50 [1]: 12000 nM | EC50 [2]: > 25000 nM | IC50 [3]: 1980 nM | EC50 [4]: 9520 nM | IC50 [5]: 2390 nM | IC50 [6]: 878 nM

Cc1nc(NC(=O)c2cccn2Cc2ccncc2)sc1F [Compound A42]
IC50 [1]: > 25000 nM | EC50 [2]: > 25000 nM | IC50 [3]: 3790 nM | EC50 [4]: > 25000 nM | IC50 [5]: 2180 nM | IC50 [6]: 939 nM

CCc1sc(NC(=O)c2cccn2Cc2ccncc2)nc1C [Compound A43]
IC50 [1]: > 25000 nM | EC50 [2]: > 25000 nM | IC50 [3]: 2670 nM | EC50 [4]: > 25000 nM | IC50 [5]: 2210 nM | IC50 [6]: 942 nM

CC(C)OC(C)(C)c1csc(NC(=O)c2cccn2CCCCc2ccncc2)n1 [Compound A44, N-(4-(2-isopropoxypropan-2-yl)thiazol-2-yl)-1-(4-(pyridin-4-yl)butyl)-1H-pyrrole-2-carboxamide]
IC50 [1]: 13300 nM | EC50 [2]: > 25000 nM | IC50 [3]: 837 nM | EC50 [4]: > 24800 nM | IC50 [5]: 1480 nM | IC50 [6]: 963 nM

CC(C)(C)c1csc(NC(=O)c2cccn2Cc2ccncc2)n1 [Compound A45, N-(4-(tert-butyl)thiazol-2-yl)-1-(pyridin-4-ylmethyl)-1H-pyrrole-2-carboxamide]
IC50 [1]: 13800 nM | EC50 [2]: > 25000 nM | IC50 [3]: 869 nM | EC50 [4]: > 25000 nM | IC50 [5]: 1640 nM | IC50 [6]: 965 nM

Cc1cccc2sc(NC(=O)c3cccn3Cc3ccncc3)nc12 [Compound A46]
IC50 [1]: 17800 nM | EC50 [2]: > 25000 nM | IC50 [3]: 890 nM | EC50 [4]: > 25000 nM | IC50 [5]: 2980 nM | IC50 [6]: 1080 nM

Cc1sc(NC(=O)c2cccn2Cc2ccncc2)nc1C1CC1 [Compound A47]
IC50 [1]: 25000 nM | EC50 [2]: > 25000 nM | IC50 [3]: 3110 nM | EC50 [4]: > 25000 nM | IC50 [5]: 2210 nM | IC50 [6]: 1090 nM

Cc1cc(C(=O)Nc2nc(C(C)(C)OC(C)C)cs2)n(Cc2ccncc2)c1 [Compound A48, N-(4-(2-isopropoxypropan-2-yl)thiazol-2-yl)-4-methyl-1-(pyridin-4-ylmethyl)-1H-pyrrole-2-carboxamide]
IC50 [1]: > 25000 nM | EC50 [2]: > 25000 nM | IC50 [3]: 2220 nM | EC50 [4]: > 25000 nM | IC50 [5]: 2690 nM | IC50 [6]: 1190 nM

CC(C)OC(C)(C)c1csc(NC(=O)c2cccn2[C@H](C)c2ccncc2)n1 [Compound A49, (R)-N-(4-(2-isopropoxypropan-2-yl)thiazol-2-yl)-1-(1-(pyridin-4-yl)ethyl)-1H-pyrrole-2-carboxamide]
IC50 [1]: 23600 nM | EC50 [2]: > 25000 nM | IC50 [3]: 1890 nM | EC50 [4]: > 25000 nM | IC50 [5]: 2580 nM | IC50 [6]: 1210 nM

O=C(Nc1nc2ccccc2s1)c1cccn1Cc1ccncc1 [Compound A50, N-(benzo[d]thiazol-2-yl)-1-(pyridin-4-ylmethyl)-1H-pyrrole-2-carboxamide]
IC50 [1]: > 25000 nM | EC50 [2]: > 25000 nM | IC50 [3]: 1450 nM | EC50 [4]: > 25000 nM | IC50 [5]: 2930 nM | IC50 [6]: 1290 nM

O=C(Nc1nc(C2CC2)cs1)c1cccn1Cc1ccncc1 [Compound A51]
IC50 [1]: > 25000 nM | EC50 [2]: > 25000 nM | IC50 [3]: 2980 nM | EC50 [4]: > 25000 nM | IC50 [5]: 3420 nM | IC50 [6]: 1300 nM

O=C(Nc1nc2c(s1)CCCC2)c1cccn1Cc1ccncc1 [Compound A52]
IC50 [1]: > 25000 nM | EC50 [2]: > 25000 nM | IC50 [3]: 1950 nM | EC50 [4]: > 25000 nM | IC50 [5]: 2840 nM | IC50 [6]: 1360 nM

CC(C)OC(C)(C)c1csc(NC(=O)c2cccn2Cc2ccc([N+](=O)[O-])cc2)n1 [Compound A53, N-(4-(2-isopropoxypropan-2-yl)thiazol-2-yl)-1-(4-nitrobenzyl)-1H-pyrrole-2-carboxamide]
IC50 [1]: 19100 nM | EC50 [2]: > 25000 nM | IC50 [3]: 1200 nM | EC50 [4]: 17300 nM | IC50 [5]: 1920 nM | IC50 [6]: 1380 nM

CC(C)(C)c1cnc(NC(=O)c2cccn2Cc2ccncc2)s1 [Compound A54]
IC50 [1]: > 25000 nM | EC50 [2]: > 25000 nM | IC50 [3]: 4450 nM | EC50 [4]: > 25000 nM | IC50 [5]: 4050 nM | IC50 [6]: 1380 nM

CC(C)c1cnc(NC(=O)c2cccn2Cc2ccncc2)s1 [Compound A55]
IC50 [1]: > 25000 nM | EC50 [2]: > 25000 nM | IC50 [3]: 3990 nM | EC50 [4]: > 25000 nM | IC50 [5]: 3160 nM | IC50 [6]: 1390 nM

O=C(Nc1nc2c(s1)CCC2)c1cccn1Cc1ccncc1 [Compound A56]
IC50 [1]: > 25000 nM | EC50 [2]: > 25000 nM | IC50 [3]: 6470 nM | EC50 [4]: > 25000 nM | IC50 [5]: 5310 nM | IC50 [6]: 1420 nM

CC(C)Cc1cnc(NC(=O)c2cccn2Cc2ccncc2)s1 [Compound A57]
IC50 [1]: > 25000 nM | EC50 [2]: > 25000 nM | IC50 [3]: 4930 nM | EC50 [4]: > 25000 nM | IC50 [5]: 4200 nM | IC50 [6]: 1420 nM

Cc1nc(NC(=O)c2cccn2Cc2ccncc2)sc1C [Compound A58, N-(4,5-dimethylthiazol-2-yl)-1-(pyridin-4-ylmethyl)-1H-pyrrole-2-carboxamide]
IC50 [1]: > 25000 nM | EC50 [2]: > 25000 nM | IC50 [3]: 7060 nM | EC50 [4]: > 25000 nM | IC50 [5]: 3530 nM | IC50 [6]: 1500 nM
